In US20040072230A1, “Human SORBS1 genetic variations contribute to insulin resistance, obesity, type 2 diabetes, and hypertension” (priority 2002, published 2004):

Test system: SH3P12/CAP/ponsin mRNA
Experiment: SH3P12/CAP/ponsin mRNA level in differentiated 3T3-L1 adipocytes after BRL49653
Assay type: cell-based, murine
Settings: BRL49653 4.5 μM for 16 hours added to well-differentiated 3T3-L1 adipocytes on day 6; 8.25 fold in the absence of BRL49653

**Q.** For CN(CCOc1ccc(CC2SC(=O)NC2=O)cc1)c1ccccn1 (stereo not shown) [BRL49653, rosiglitazone], which “level of SH3P12/CAP/ponsin mRNA, fold higher than pre-induction levels” value is on record?
**A.** 17.6 fold
